Reference: PubChem BioAssay (NCI)
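Five compound concentrations were applied to cells in 96-well plates for 48 hours; endpoints were derived by simple linear interpolation of the resulting dose-response curve. TGI: total growth inhibition.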

What was measured:
Assay in all cases: inhibition of tumour cell growth, NCI panel, 48 h
HOP-62 NSCLC = system: HOP-62 NSCLC
IGROV1 ovarian = system: IGROV1 ovarian
KM12 colon = system: KM12 colon
T-47D breast = system: T-47D breast
MDA-MB-435 = system: MDA-MB-435
HT29 colon = system: HT29 colon
SF-539 CNS = system: SF-539 CNS
EKVX NSCLC = system: EKVX NSCLC
MALME-3M melanoma = system: MALME-3M melanoma
M14 melanoma = system: M14 melanoma
SF-268 CNS = system: SF-268 CNS
HCT-116 colon = system: HCT-116 colon
NCI-H460 lung = system: NCI-H460 lung
NCI-H522 lung = system: NCI-H522 lung
SK-OV-3 ovarian = system: SK-OV-3 ovarian
SW-620 colon = system: SW-620 colon
A549 NSCLC = system: A549 NSCLC
A498 renal = system: A498 renal
HOP-92 NSCLC = system: HOP-92 NSCLC
786-0 renal = system: 786-0 renal
NCI-H226 lung = system: NCI-H226 lung
SK-MEL-5 melanoma = system: SK-MEL-5 melanoma
U251 CNS = system: U251 CNS
HL-60(TB) leukemia = system: HL-60(TB) leukemia
TK-10 renal = system: TK-10 renal
SK-MEL-2 melanoma = system: SK-MEL-2 melanoma
ACHN renal = system: ACHN renal
PC-3 prostate = system: PC-3 prostate
NCI-H23 lung = system: NCI-H23 lung
HCC-2998 colon = system: HCC-2998 colon
DU-145 prostate = system: DU-145 prostate
SF-295 CNS = system: SF-295 CNS
NCI/ADR-RES ovarian = system: NCI/ADR-RES ovarian
UACC-62 melanoma = system: UACC-62 melanoma
MDA-N = system: MDA-N
MCF7 breast = system: MCF7 breast
HCT-15 colon = system: HCT-15 colon
CAKI-1 renal = system: CAKI-1 renal
OVCAR-4 ovarian = system: OVCAR-4 ovarian
SR leukemia = system: SR leukemia
COLO 205 colon = system: COLO 205 colon
RXF 393 renal = system: RXF 393 renal
OVCAR-5 ovarian = system: OVCAR-5 ovarian
K-562 leukemia = system: K-562 leukemia
SNB-75 CNS = system: SNB-75 CNS
HS 578T breast = system: HS 578T breast
OVCAR-3 ovarian = system: OVCAR-3 ovarian
SNB-19 CNS = system: SNB-19 CNS
SN12C renal = system: SN12C renal
LOX IMVI melanoma = system: LOX IMVI melanoma
OVCAR-8 ovarian = system: OVCAR-8 ovarian
SK-MEL-28 melanoma = system: SK-MEL-28 melanoma
UACC-257 melanoma = system: UACC-257 melanoma
CCRF-CEM leukemia = system: CCRF-CEM leukemia
RPMI-8226 leukemia = system: RPMI-8226 leukemia
MDA-MB-231 breast = system: MDA-MB-231 breast
UO-31 renal = system: UO-31 renal
MOLT-4 leukemia = system: MOLT-4 leukemia

Measured: TGI

CCOP(=O)(C=C=C(C)C)OCC
> 100 µM: HOP-62 NSCLC | IGROV1 ovarian | KM12 colon | T-47D breast | MDA-MB-435 | HT29 colon | SF-539 CNS | EKVX NSCLC | MALME-3M melanoma | M14 melanoma | SF-268 CNS | HCT-116 colon | NCI-H460 lung | NCI-H522 lung | SK-OV-3 ovarian | SW-620 colon | A549 NSCLC | A498 renal | HOP-92 NSCLC | 786-0 renal | NCI-H226 lung | SK-MEL-5 melanoma | U251 CNS | HL-60(TB) leukemia | TK-10 renal | SK-MEL-2 melanoma | ACHN renal | PC-3 prostate | NCI-H23 lung | HCC-2998 colon | DU-145 prostate | SF-295 CNS | NCI/ADR-RES ovarian | UACC-62 melanoma | MDA-N | MCF7 breast | HCT-15 colon | CAKI-1 renal | OVCAR-4 ovarian | SR leukemia | COLO 205 colon | RXF 393 renal | OVCAR-5 ovarian | K-562 leukemia | SNB-75 CNS | HS 578T breast | OVCAR-3 ovarian | SNB-19 CNS | SN12C renal | LOX IMVI melanoma | OVCAR-8 ovarian | SK-MEL-28 melanoma | UACC-257 melanoma

CCOC(=O)NC(NC(C)CC)(C(F)(F)F)C(F)(F)F (centres undefined)
> 100 µM: HOP-62 NSCLC | IGROV1 ovarian | KM12 colon | T-47D breast | MDA-MB-435 | HT29 colon | SF-539 CNS | EKVX NSCLC | MALME-3M melanoma | M14 melanoma | SF-268 CNS | HCT-116 colon | NCI-H460 lung | NCI-H522 lung | CCRF-CEM leukemia | SW-620 colon | A549 NSCLC | A498 renal | HOP-92 NSCLC | RPMI-8226 leukemia | 786-0 renal | NCI-H226 lung | SK-MEL-5 melanoma | U251 CNS | MDA-MB-231 breast | HL-60(TB) leukemia | TK-10 renal | SK-MEL-2 melanoma | ACHN renal | PC-3 prostate | NCI-H23 lung | DU-145 prostate | SF-295 CNS | UO-31 renal | NCI/ADR-RES ovarian | UACC-62 melanoma | MDA-N | MCF7 breast | HCT-15 colon | MOLT-4 leukemia | CAKI-1 renal | OVCAR-4 ovarian | SR leukemia | COLO 205 colon | RXF 393 renal | OVCAR-5 ovarian | K-562 leukemia | SNB-75 CNS | HS 578T breast | OVCAR-3 ovarian | SNB-19 CNS | SN12C renal | LOX IMVI melanoma | OVCAR-8 ovarian | SK-MEL-28 melanoma | UACC-257 melanoma
